Data taken from ChEMBL document CHEMBL4706534, “1,2,3-Triazole-containing hybrids with potential antibacterial activity against methicillin-resistant Staphylococcus aureus (MRSA)” (Eur J Med Chem, 2020).
≈ marks a conversion by molar mass, not a printed value.

Tests used:
Format in all cases: functional
[1] = test system: Staphylococcus aureus; test: Antibacterial activity against methicillin-resistant Staphylococcus aureus ATCC 33591 incubated for 18 hrs
[2] = test system: Staphylococcus aureus; test: Antibacterial activity against methicillin-susceptible Staphylococcus aureus ATCC 25923 incubated for 18 hrs
[3] = test system: Staphylococcus aureus; test: Potency index, ratio of linezolid MIC to compound MIC for antibacterial activity against methicillin-resistant Staphylococcus aureus ATCC 33591
[4] = test system: Staphylococcus aureus; test: Antibacterial activity against Methicillin-resistant Staphylococcus aureus incubated for 24 hrs by broth microdilution method
[5] = test system: Staphylococcus aureus; test: Antibacterial activity against Methicillin-resistant Staphylococcus aureus 2 incubated for 16 hrs by agar dilution method
[6] = test system: Enterococcus; test: Antibacterial activity against Vancomycin-resistant enterococcus 1 incubated for 16 hrs by agar dilution method
[7] = test system: Staphylococcus aureus; test: Antibacterial activity against Methicillin-resistant Staphylococcus aureus 1 incubated for 16 hrs by agar dilution method
[8] = test system: Enterococcus; test: Antibacterial activity against Vancomycin-resistant enterococcus 2 incubated for 16 hrs by agar dilution method
[9] = test system: Staphylococcus aureus; test: Antibacterial activity against Methicillin-resistant Staphylococcus aureus KU60
[10] = test system: Staphylococcus aureus; test: Resistance index, ratio of MIC for antibacterial activity against methicillin-resistant Staphylococcus aureus […] to MIC for antibacterial activity against methicillin-sensitive Staphylococcus aureus
[11] = test system: Staphylococcus aureus; test: Antibacterial activity against Staphylococcus aureus ATCC 25923 by CLSI-based broth microdilution method
[12] = test system: Staphylococcus aureus; test: Antibacterial activity against methicillin-resistant Staphylococcus aureus ATCC 43300 incubated for 18 hrs
[13] = test system: Staphylococcus aureus; test: Resistance index, ratio of MIC for antibacterial activity against Staphylococcus aureus ATCC 43300 incubated for 18 hrs to MIC for antibacterial activity against Staphylococcus aureus ATCC 25923 incubated for 18 hrs
[14] = test system: Staphylococcus aureus; test: Antibacterial activity against Methicillin-resistant Staphylococcus aureus USA100 by CLSI-based microdilution method
[15] = test system: Staphylococcus aureus; test: Antibacterial activity against wild type Methicillin-resistant Staphylococcus aureus by CLSI-based microdilution method
[16] = test system: Staphylococcus aureus; test: Antibacterial activity against Methicillin-resistant Staphylococcus aureus USA300 by CLSI-based microdilution method
[17] = test system: Staphylococcus aureus; test: Antibacterial activity against Methicillin-resistant Staphylococcus aureus USA200 by CLSI-based microdilution method
[18] = test system: Staphylococcus aureus; test: Antibacterial activity against Methicillin-resistant Staphylococcus aureus USA600 by CLSI-based microdilution method
[19] = test system: Staphylococcus aureus; test: Antibacterial activity against methicillin-resistant Staphylococcus aureus
[20] = test system: Staphylococcus aureus; test: Antibacterial activity against Methicillin-resistant Staphylococcus aureus ATCC 33591 incubated for 20 hrs by broth two-fold dilution method
[21] = test system: Staphylococcus aureus; test: Bactericidal activity against methicillin-resistant Staphylococcus aureus ATCC 33591 measured after 20 hrs

`CC(=O)NC[C@H]1CN(c2ccc(-n3cc(-c4ncccn4)nn3)c(F)c2)C(=O)O1` gave an MIC [1] of 0.5 µg/mL (≈ 1.26 µM), an MIC [2] of 2 µg/mL (≈ 5.03 µM) and a Ratio [3] of 4.

`Cc1ccc(-n2cc(Cn3c4ccccc4c(=O)c4cc(C)ccc43)nn2)cc1` showed an MIC [4] of 19.6 µg/mL (≈ 51.5 µM).

Work on `CC(C)C[C@H](C(=O)N[C@@H]1Cc2ccc(c(Cl)c2)Oc2cc3cc(c2O[C@@H]2O[C@H](CO)[C@@H](O)[C@H](O)[C@H]2O[C@H]2C[C@](C)(NCCCCCCCc4ccccc4)[C@H](O)[C@H](C)O2)Oc2ccc(cc2Cl)[C@@H](O)[C@@H]2NC(=O)[C@H](NC(=O)[C@@H]3NC(=O)[C@H](CC(=O)O)NC1=O)c1ccc(O)c(c1)-c1c(O)cc(O)cc1[C@H](C(=O)O)NC2=O)n1cc(COCCCCCCOCc2cn([C@H](CC(C)C)C(=O)N[C@@H]3Cc4ccc(c(Cl)c4)Oc4cc5cc(c4O[C@@H]4O[C@H](CO)[C@@H](O)[C@H](O)[C@H]4O[C@H]4C[C@](C)(NCCCCCCCc6ccccc6)[C@H](O)[C@H](C)O4)Oc4ccc(cc4Cl)[C@@H](O)[C@@H]4NC(=O)[C@H](NC(=O)[C@@H]5NC(=O)[C@H](CC(=O)O)NC3=O)c3ccc(O)c(c3)-c3c(O)cc(O)cc3[C@H](C(=O)O)NC4=O)nn2)nn1` yielded an MIC [5] of 12.5 µg/mL (≈ 3.64 µM), an MIC [6] of 25 µg/mL (≈ 7.28 µM) and an MIC [7] of 12.5 µg/mL (≈ 3.64 µM). The MIC [8] was 12.5 µg/mL (≈ 3.64 µM).

In the case of `O=C(C(Cl)Cl)N1CCN(c2ccc(N3C[C@H](Cn4ccnn4)OC3=O)cc2F)CC1`, the MIC [9] is reported as 0.25 µg/mL (≈ 0.547 µM).

Molecule `c1ccc(SCn2cc(COc3ccc(-c4nc5cc(C6=NCCN6)ccc5[nH]4)cc3)nn2)cc1` has a Ratio [10] of 0.125 and an MIC [11] of 8 µg/mL (≈ 16.6 µM).

Molecule `CC(=O)NC[C@H]1CN(c2ccc(-n3cc(-c4ccccn4)nn3)c(F)c2)C(=O)O1` has an MIC [1] of 0.5 µg/mL (≈ 1.26 µM), an MIC [2] of 2 µg/mL (≈ 5.05 µM) and a Ratio [3] of 4.

`NC[C@H]1O[C@@H](O[C@@H](Cc2cn(CCCCCCCCCCOc3ccc(C(=O)c4ccccc4)cc3)nn2)[C@H]2O[C@@H](n3ccc(=O)[nH]c3=O)[C@H](O)[C@@H]2O)[C@H](O)[C@@H]1O.O=C(O)C(F)(F)F` gave an MIC [12] of 8 µg/mL and a Ratio [13] of 0.5.

`CC(=O)NC[C@H]1CN(c2ccc(-n3cc(-c4ccncn4)nn3)c(F)c2)C(=O)O1` gave an MIC [1] of 0.5 µg/mL (≈ 1.26 µM), an MIC [2] of 2 µg/mL (≈ 5.03 µM) and a Ratio [3] of 4.

`CC(C)(C)C(=O)N1CCN(c2ccc(N3C[C@H](Cn4ccnn4)OC3=O)cc2F)CC1` gave an MIC [9] of 0.25 µg/mL (≈ 0.581 µM).

`O=C(N[C@H](CO)[C@H](O)c1ccc([N+](=O)[O-])cc1)C(Cl)Cl` [CHLORAMPHENICOL] gave an MIC [4] of 11.6 µg/mL (≈ 35.9 µM).

For `NC[C@@H]1O[C@H](O[C@H]2[C@@H](O)[C@H](O[C@@H]3[C@@H](O)[C@H](N)C[C@H](N)[C@H]3O[C@H]3O[C@H](CN)[C@@H](O)[C@H](O)[C@H]3N)O[C@@H]2CO)[C@H](N)[C@@H](O)[C@@H]1O` [FRAMYCETIN], the MIC [14] was > 50 µg/mL, the MIC [15] was > 50 µg/mL and the MIC [16] was > 50 µg/mL. The MIC [17] was > 50 µg/mL and the MIC [18] was > 50 µg/mL.

`COc1c(N2C[C@@H]3CCCN[C@@H]3C2)c(F)cc2c(=O)c(C(=O)O)cn(C3CC3)c12` [MOXIFLOXACIN] showed an MIC [19] of 8 µg/mL (≈ 19.9 µM).

In the case of `COc1cc(/C=C/c2ccc(O)cc2)cc(OC)c1` [PTEROSTILBENE], the MIC [20] is reported as 41 µg/mL (≈ 160 µM) and the MBC [21] is reported as 41 µg/mL (≈ 160 µM).
